Laboratory results reported in PMC5741980 (Journal of Experimental Pharmacology, 2017).
Peptide text beside a SMILES is read from it.

What was measured:
[1] = biological target: T1, human V1 receptors (Homo sapiens, UniProt P37288); experiment: Competitive binding assay, [3H]AVP, CHO-S cell membrane homogenates; details: for affinity (selectivity) for V1 higher than for V2: this study
[2] = biological target: T2, human V2 receptors (Homo sapiens, UniProt P30518); experiment: Competitive binding assay, [3H]AVP, CHO-K1 cell membrane homogenates
[3] = biological target: T1, human V1 receptors; experiment: Functional assay, intracellular calcium mobilization; type: cell-based; details: compared with maximal effect of AVP
[4] = biological target: T2, human V2 receptors; experiment: Functional assay, cAMP production; type: cell-based; details: compared with maximal effect of AVP
[5] = biological target: T1, human V1 receptors; details: cited from earlier work; for Ki: read-out: mean binding affinity (Ki) for human V1 receptors, human vascular smooth muscle cells
[6] = test system: rat V1 receptors; details: cited from earlier work
[7] = biological target: T1, human V1 receptors; details: intracellular calcium mobilization; cited from earlier work
[8] = test system: rat V1 receptors; details: intracellular calcium mobilization; cited from earlier work
[9] = test system: V1 activation; details: rat model of portal hypertension, cited from earlier work
[10] = test system: V1; details: cited from earlier work; for EC50: read-out: EC50 for V1 activation, recombinant system, functional assay

T2 sequence (P30518 whole entry): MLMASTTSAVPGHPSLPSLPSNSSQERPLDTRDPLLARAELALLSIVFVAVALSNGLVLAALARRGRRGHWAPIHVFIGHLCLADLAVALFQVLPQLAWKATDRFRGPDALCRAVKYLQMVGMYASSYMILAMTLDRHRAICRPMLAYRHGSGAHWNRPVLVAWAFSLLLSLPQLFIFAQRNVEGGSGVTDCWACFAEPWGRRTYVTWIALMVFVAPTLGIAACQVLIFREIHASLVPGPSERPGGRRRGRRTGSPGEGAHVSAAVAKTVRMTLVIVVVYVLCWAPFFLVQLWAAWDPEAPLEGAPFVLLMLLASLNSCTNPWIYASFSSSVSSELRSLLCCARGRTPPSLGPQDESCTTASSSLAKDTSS
T1 sequence (P37288 whole entry): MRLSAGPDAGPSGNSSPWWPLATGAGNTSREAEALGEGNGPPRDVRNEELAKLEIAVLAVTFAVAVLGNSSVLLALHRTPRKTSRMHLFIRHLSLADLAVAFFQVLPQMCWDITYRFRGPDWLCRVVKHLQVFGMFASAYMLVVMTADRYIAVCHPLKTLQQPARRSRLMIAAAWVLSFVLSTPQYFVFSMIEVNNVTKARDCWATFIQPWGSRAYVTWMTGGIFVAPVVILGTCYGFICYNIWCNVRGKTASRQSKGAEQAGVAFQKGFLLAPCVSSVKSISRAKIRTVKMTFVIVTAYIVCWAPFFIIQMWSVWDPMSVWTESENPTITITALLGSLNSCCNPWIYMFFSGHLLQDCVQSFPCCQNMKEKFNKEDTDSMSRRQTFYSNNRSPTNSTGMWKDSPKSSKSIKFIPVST

affinity (selectivity) for V1 higher than for V2 [1]	binding affinity less than that of LVP, V1 receptors ([1]; versus LVP)	binding affinity less than that of LVP, V2 receptors ([2]; versus LVP)	agonist type at V1 receptors [3]	agonist type at V2 receptors [4]	binding affinity less than that of AVP, V1 receptors ([1]; versus AVP)	binding affinity less than that of AVP, V2 receptors ([2]; versus AVP)	Compound	selectivity for V1 receptors higher than for V2 receptors ([5]; Colson et al) [fold]	Ki [5] [nM]	binding affinity less than that of LVP, human V1 receptors ([5]; versus LVP)	difference in binding versus LVP at rat V1 receptors [6] [fold]	mean maximal cell activation at human V1 receptors [7] [%]	mean maximal cell activation at rat V1 receptors [8] [%]	mean potency for V1 activation in vasopressor tests [9] [IU×µmol^−1]	mean potency less than that of vasopressin ([9]; vasopressor tests)	EC50 [10] [nM]	EC50 higher than that for LVP ([10]; versus LVP)
approximately sixfold	about 600 fold	about 700 fold	partial agonist	full agonist	–	–	NCCCC[C@H](NC(=O)[C@@H]1CCCN1C(=O)[C@@H]1CSSC[C@H](NC(=O)CNC(=O)CNC(=O)CN)C(=O)N[C@@H](Cc2ccc(O)cc2)C(=O)N[C@@H](Cc2ccccc2)C(=O)N[C@@H](CCC(N)=O)C(=O)N[C@@H](CC(N)=O)C(=O)N1)C(=O)NCC(N)=O [Terlipressin, N^α-tryglycl-8-lysine-vasopressin] (HELM PEPTIDE1{G.G.G.C.Y.F.Q.N.C.P.K.G.[am]}$PEPTIDE1,PEPTIDE1,4:R3-9:R3$$$V2.0; bridges inferred)	1.9	1230	about 120 fold	~700	48	66	9	about 66 fold	148	about 150 fold
approximately sixfold	–	–	full agonist	full agonist	about twofold	about 12 fold	NCCCC[C@H](NC(=O)[C@@H]1CCCN1C(=O)[C@@H]1CSSC[C@H](N)C(=O)N[C@@H](Cc2ccc(O)cc2)C(=O)N[C@@H](Cc2ccccc2)C(=O)N[C@@H](CCC(N)=O)C(=O)N[C@@H](CC(N)=O)C(=O)N1)C(=O)NCC(N)=O [LVP, [Lys8]-vasopressin]	–	10	–	–	100	100	–	–	0.93	–
–	–	–	–	–	–	–	vasopressin: vasopressin comparator in Bernadich et al rat vasopressor tests; probably AVP	–	–	–	–	–	–	614	–	–	–
